# Test results published in patent US9926304B2, “1-(arylmethyl)quinazoline-2,4(1H,3H)-diones as PARP inhibitors and the use thereof” (Impact Therapeutics, Inc., priority 2011, dated 2018).
# Like-named read-outs stand apart in the source and are kept apart here.
# Experiments:
# [1] = tested on: Human breast cancer cell line T47D; assay: Cell based caspase-3 activity assay: potentiation of MMS induced apoptosis; conditions: T47D cells, 11.1 μg/ml MMS, 24 hours, intracellular caspase-3 activity, read-out: EC50 (nM), potentiation of the apoptosis inducing activity of MMS
# Description: Determination of the synergistic potentiation effect of 1-(3-(4-(pyrimidin-2-yl)piperazine-1-carbonyl)benzyl)quinazoline-2,4(1H,3H)-dione and analogs on MMS induced apoptosis using a cell based caspase-3 activity assay
# Human breast cancer cell line T47D was used to determine the potentiation effect of PARP inhibitors on the apoptosis inducing activity of DNA damaging anticancer drugs such as MMS. Intracellular caspase-3 activity was used to measure cell apoptosis. The dose response effect of MMS to induce intracellular caspase activity was carefully titrated and the concentration that only induces a minimal level of caspase activity was used to test the potentiation effect of PARP inhibitors. Briefly, T47D cells were grown in DMEM/F12 cell culture medium (Hyclone) supplemented with 0.2 U/ml insulin (Genview) and 10% FBS (Hyclone). A day before experiment, 20000 of T47D cells were seeded to each well of a 96-well cell culture plate and maintained at 37° C. and 5% CO2 in a cell culture incubator overnight. On the day of experiment, cell culture medium was removed. One hundred and eighty μl of fresh medium containing 11.1 μg/ml MMS was added to each well and followed by 20 μl medium containing 10 folds of the concentrations of experimental drugs or reference compounds (ADZ2281 and ABT-888). The serial dilutions of the compounds to be tested and the reference compounds were made in a 1:3 and 1:10 fashion in DMSO. The 10-fold compound solutions were made by mixing 10 μl DMSO serial dilution solutions with 90 μl fresh growth medium. Twenty four hours later, the cells in the 96-well plates were centrifuged at 1000 g for 5 min and the supernatants were removed. Fifty μl lysis buffer (10 mM Tris, pH7.5, 0.1M NaCl, 1 mM EDTA, 0.01% Triton X-100) was added to each well and the plates were shaked horizontally for 30 min at 4° C. After centrifugation at 1000 g at 4° C. for 10 min, 20 μl of supernatant was transferred from each well to a corresponding well in a 384-well black plate. Twenty μl of buffer (20 mM PIPES, pH7.4, 4 mM EDTA and 0.2% CHAPS) containing 20 μM fluorescent caspase-3 substrate ((Ac-DEVD)2-R110, AnaSpec Cat #60304-5) was added to each well afterwards. The plates were shaked to uniformly mix the wells and incubated at 37° C. for 3 h. The fluorescence intensity was measured using the following wavelength: ex: 496 nm, em: 520 nm using a fluorescence plate reader (Varioskan Flash, Thermo Fisher Scientific). The caspase-3 activity induced by the compounds was expressed as a relative fluorescence unit (RFU). The obtained fluorescence readings were analyzed using a commercial graphic software (GraphPad Prism 5) and plotted against the Log value of the compound concentrations. The EC50 values were obtained by fitting the data points with the equation of Y (fluorescence reading)=minimal fluorescence reading+(maximal fluorescence reading−minimal fluorescence reading)/(1+10^(Log EC50−Log C)), where C is the concentration of the testing compound.
# The synergistic potentiation effect of compounds on MMS induced apoptosis in T47D cells is expressed as EC50 values and listed in Table 2.
# [2] = tested on: SW620 human colorectal cancer cells; assay: MTT based cell viability assay: potentiation of the growth inhibiting activity of MMS
# [3] = Homo sapiens, SW-620, 120 h, read-out: IC50 (nM), potentiation of the growth inhibiting activity of MMS, SW620 cells, 1.7 μg/ml MMS, 5 days (120 hours), MTT
"EC50 ([1]; Homo sapiens, T47D, 24 h) [nM]","IC50 [2, 3] [nM]",EC50 [1] [nM],"IC50 ([2]; read-out: IC50 (nM), potentiation of the growth inhibiting activity of MMS, SW620 cells, 1.7 μg/ml MMS, 5 days (120 hours), MTT) [nM]",SMILES
471,1440,–,–,"O=c1[nH]c(=O)n(Cc2cccc(CN3CCN(c4ccccn4)CC3)c2)c2ccccc12 [Example 195, 1-(3-((4-(Pyridin-2-yl)piperazin-1-yl)methyl)benzyl)quinazoline-2,4(1H,3H)-dione]"
5,5.7,–,–,"O=C(c1ccc(F)c(Cn2c(=O)[nH]c(=O)c3cc(Cl)ccc32)c1)N1CCN(C(=O)C2CCC2)CC1 [Example 167, 6-Chloro-1-(3-(4-(cyclobutylcarbonyl)piperazine-1-carbonyl)-6-fluorobenzyl)quinazoline-2,4(1H,3H)-dione]"
30,27,–,–,"O=C(c1ccc(Cl)c(Cn2c(=O)[nH]c(=O)c3cc(F)ccc32)c1)N1CCN(c2ncccn2)CC1 [Example 187, 1-(6-Chloro-3-(4-(pyrimidin-2-yl)piperazine-1-carbonyl)benzyl)-6-fluoroquinazoline-2,4(1H,3H)-dione]"
743,1390,–,–,"O=C(c1cc(Cn2c(=O)[nH]c(=O)c3c(F)cccc32)ccc1Br)N1CCN(c2ncccn2)CC1 [Example 215, 1-(4-Bromo-3-(4-(pyrimidin-2-yl)piperazine-1-carbonyl)benzyl)-5-fluoroquinazoline-2,4(1H,3H)-dione]"
14,16,–,–,"O=C(c1ccc(F)c(Cn2c(=O)[nH]c(=O)c3c(F)cccc32)c1)N1CCN(C(=O)C2CCC2)CC1 [Example 182, 1-(3-(4-(Cyclobutylcarbonyl)piperazine-1-carbonyl)-6-fluorobenzyl)-5-fluoroquinazoline-2,4(1H,3H)-dione]"
> 10000,> 10000,–,–,"O=C(c1cccc(CCn2c(=O)[nH]c(=O)c3ccccc32)c1)N1CCN(c2ncccn2)CC1 [Example 229, 1-(3-(4-(Pyrimidin-2-yl)piperazine-1-carbonyl)phenethyl)quinazoline-2,4(1H,3H)-dione]"
166,145,–,–,"O=C(c1cc(Cn2c(=O)[nH]c(=O)c3c(F)cccc32)ccc1[N+](=O)[O-])N1CCN(c2ncccn2)CC1 [Example 211, 5-Fluoro-1-(4-nitro-3-(4-(pyrimidin-2-yl)piperazine-1-carbonyl)benzyl)quinazoline-2,4(1H,3H)-dione]"
> 10000,> 10000,–,–,"O=C(c1cccc(Cn2c(=O)[nH]c3c(Cl)cccc3c2=O)c1)N1CCN(c2ncccn2)CC1 [Example 223, 8-Chloro-3-(3-(4-(pyrimidin-2-yl)piperazine-1-carbonyl)benzyl)quinazoline-2,4(1H,3H)-dione]"
743,> 10000,–,–,"O=C(c1cccc(Cn2c(=O)[nH]c(=O)c3ccccc32)c1)N1CCN(C2CCCC2)CC1 [Example 177, 1-(3-(4-Cyclopentylpiperazine-1-carbonyl)benzyl)quinazoline-2,4(1H,3H)-dione]"

# Continued, compound first:
SMILES,"EC50 ([1]; Homo sapiens, T47D, 24 h) [nM]","IC50 [2, 3] [nM]",EC50 [1] [nM],"IC50 ([2]; read-out: IC50 (nM), potentiation of the growth inhibiting activity of MMS, SW620 cells, 1.7 μg/ml MMS, 5 days (120 hours), MTT) [nM]"
"O=C(c1ccc(Cl)c(Cn2c(=O)[nH]c(=O)c3ccccc32)c1)N1CCN(C(=O)C2CCCCC2)CC1 [Example 57, 1-(6-Chloro-3-(4-(cyclohexylcarbonyl)piperazine-1-carbonyl)benzyl)quinazoline-2,4(1H,3H)-dione]",22,46,–,–
"O=C(c1cccnc1)N1CCN(C(=O)c2cccc(Cn3c(=O)[nH]c(=O)c4ccccc43)c2)CC1 [Example 36, 1-(3-(4-(Pyridine-3-carbonyl)piperazine-1-carbonyl)benzyl)quinazoline-2,4(1H,3H)-dione]",> 10000,> 10000,–,–
"O=C(c1cccc(Cn2c(=O)[nH]c(=O)c3ccccc32)n1)N1CCN(c2ncccn2)CC1 [Example 71, 1-((2-(4-(Pyrimidin-2-yl)piperazine-1-carbonyl)pyridin-6-yl)methyl)quinazoline-2,4(1H,3H)-dione]",67,70,–,–
"O=C(c1cccc(Cn2c(=O)[nH]c(=O)c3c(F)cccc32)c1)N1CCN(C(=O)C2CCCCC2)CC1 [Example 129, 1-(3-(4-(Cyclohexylcarbonyl)piperazine-1-carbonyl)benzyl)-5-fluoroquinazoline-2,4(1H,3H)-dione]",49,18,–,–
"O=C(c1ccc(F)c(Cn2c(=O)[nH]c(=O)c3cc(Cl)ccc32)c1)N1CCN(C(=O)c2cccs2)CC1 [Example 126, 6-Chloro-1-(6-fluoro-3-(4-(thiophene-2-carbonyl)piperazine-1-carbonyl)benzyl)quinazoline-2,4(1H,3H)-dione]",6.5,18,–,–
"O=C(c1ccc(F)c(Cn2c(=O)[nH]c(=O)c3c(F)cccc32)c1)N1CCN(C(=O)c2cccs2)CC1 [Example 156, 5-Fluoro-1-(6-fluoro-3-(4-(thiophene-2-carbonyl)piperazine-1-carbonyl)benzyl)quinazoline-2,4(1H,3H)-dione]",14,28,–,–
"O=C(c1cccc(Cn2c(=O)[nH]c(=O)c3ccc(Cl)cc32)c1)N1CCN(C(=O)C2CCCC2)CC1 [Example 162, 7-Chloro-1-(3-(4-(cyclopentylcarbonyl)piperazine-1-carbonyl)benzyl)quinazoline-2,4(1H,3H)-dione]",495,1190,–,–
"Cc1ccc2c(=O)[nH]c(=O)n(Cc3cccc(C(=O)N4CCN(C(=O)C5CCCC5)CC4)c3)c2c1 [Example 79, 1-(3-(4-(Cyclopentylcarbonyl)piperazine-1-carbonyl)benzyl)-7-methylquinazoline-2,4(1H,31H)-dione]",–,–,3220,5540
"Cc1ccc2c(c1)c(=O)[nH]c(=O)n2Cc1cccc(C(=O)N2CCN(C(=O)C3CCCC3)CC2)c1 [Example 82, 1-(3-(4-(Cyclopentylcarbonyl)piperazine-1-carbonyl)benzyl)-6-methylquinazoline-2,4(1H,3H)-dione]",154,459,–,–
"O=C(c1cccc(Cn2c(=O)[nH]c(=O)c3ccccc32)c1)N1CCN(c2ccncc2)CC1 [Example 29, 1-(3-(4-(Pyridin-4-yl)piperazine-1-carbonyl)benzyl)quinazoline-2,4(1H,3H)-dione]",> 10000,> 10000,–,–
"O=C(c1cccc(Cn2c(=O)[nH]c(=O)c3ccccc32)c1)N1CCN(C(=O)c2cccs2)CC1 [Example 32, 1-(3-(4-(Thiophene-2-carbonyl)piperazine-1-carbonyl)benzyl)quinazoline-2,4(1H,3H)-dione]",96,106,–,–
"O=C(c1cccc(Cn2c(=O)[nH]c(=O)c3ccccc32)c1)N1CCC(N2CCCCC2)CC1 [Example 28, 1-(3-(4-(Piperidin-1-yl)piperidine-1-carbonyl)benzyl)quinazoline-2,4(1H,3H)-dione]",5890,> 10000,–,–
"O=C(c1cccc(Cn2c(=O)[nH]c(=O)c3ccccc32)c1)N1CCN(c2nccs2)CC1 [Example 72, 1-(3-(4-(Thiazol-2-yl)piperazine-1-carbonyl)benzyl)quinazoline-2,4(1H,3H)-dione]",41,80,–,–
"O=C(c1ccc(F)c(Cn2c(=O)[nH]c(=O)c3ccccc32)c1)N1CCN(C(=O)c2cccs2)CC1 [Example 52, 1-(6-Fluoro-3-(4-(thiophene-2-carbonyl)piperazine-1-carbonyl)benzyl)quinazoline-2,4(1H,3H)-dione]",22,55,–,–
"O=C(c1ccc(Cn2c(=O)[nH]c(=O)c3ccccc32)cc1)N1CCN(c2ccccn2)CC1 [Example 94, 1-(4-(4-(Pyridin-2-yl)piperazine-1-carbonyl)benzyl)quinazoline-2,4(1H,3H)-dione]",> 10000,> 10000,–,–
